Laboratory results taken from publication PMC5300040 (Environmental Science & Technology, 2016).
Read-outs that look alike come from different tables or passages of the source.

Tests used:
[1] = system: liver microsomes prepared from male Sprague–Dawley rats; type: in vitro ADME, rat; details: for relative level of dihydroxylated metabolite: all rat liver microsomal preparations except PB-pretreated rats, GC-μECD; for metabolite detection by GC–MS: 50 μM parent PCB, 2 h, 37 °C
dog CYP2B11 = details: cited from earlier work
recombinant rat CYP2B1 = details: cited from earlier work
[2] = system: liver microsomes from rats, dogs, guinea pigs, hamsters, monkeys and rabbits; type: in vitro ADME; details: for formation of monohydroxylated metabolite, GC–MS: all microsomal preparations investigated; for status of metabolite in incubations with liver microsomes of different species: dogs, guinea pigs, hamsters, monkeys, rabbits, all incubations
[3] = Racemization of OH-PCB metabolites; type: physicochemical; details: CD column, GC-μECD; 300 °C for 2 h; methylated derivatives
[4] = system: liver microsomes from untreated beagle dogs (female); type: in vitro ADME; details: female dog liver microsomes; 50 μM parent PCB, 2 h, 37 °C
[5] = system: liver microsomes from golden Syrian hamsters (male); type: in vitro ADME; details: male hamster liver microsomes; 50 μM parent PCB, 2 h, 37 °C
[6] = system: liver microsomes from Cynomolgus monkeys (male); type: in vitro ADME; details: monkey liver microsomes, compared with other liver microsomes
[7] = microsomes from isoniazid (INH) pretreated rats
[8] = microsomes from phenobarbital (PB) pretreated rats

SMILES | relative level of dihydroxylated metabolite [1] | metabolite detection by GC–MS [1, 7] | metabolite detection by GC–MS [1, 8] | formation of monohydroxylated metabolite, GC–MS [2] | status of metabolite in incubations with liver microsomes of different species [2] | EF after racemization [3] | also measured
Oc1cc(Cl)c(-c2ccc(Cl)cc2Cl)c(Cl)c1O [diOH-PCB 51, 3′,4′-dihydroxy-2,2′,4,6′-tetrachlorobiphenyl] | minor metabolites | low levels | minor | – | – | – | –
Oc1cc(Cl)c(Cl)c(-c2c(Cl)ccc(Cl)c2Cl)c1Cl [5-OH-PCB 136, 2,2′,3,3′,6,6′-hexachlorobiphenyl-5-ol] | – | – | – | – | – | – | metabolite formed (dog CYP2B11): 4,5-dihydroxylated PCB 136 metabolite; metabolite formed (recombinant rat CYP2B1): 4,5-dihydroxylated PCB 136 metabolite
Oc1ccc(Cl)c(-c2cc(Cl)c(Cl)cc2Cl)c1Cl [OH-PCB 102, 2,2′,4,5,6′-pentachlorobiphenyl-3′-ol] | – | – | major metabolite | detected | major metabolite | 0.49 ± 0.01 | –
Oc1cc(Cl)c(-c2cc(Cl)c(Cl)cc2Cl)c(Cl)c1O [diOH-PCB 102, 3′,4′-dihydroxy-2,2′,4,5,6′-pentachlorobiphenyl] | minor metabolites | formed | formation | – | – | – | metabolite detection by GC–MS ([1]; microsomes from corn oil (CO) treated rats): formed; metabolite detection by GC–MS [4]: formed; metabolite detection by GC–MS [5]: formed
Oc1ccc(Cl)c(-c2ccc(Cl)cc2Cl)c1Cl [OH-PCB 51, 2,2′,4,6′-tetrachlorobiphenyl-3′-ol] | – | – | major metabolite | formed | major metabolite | 0.46 ± 0.01 | extent of enantiomeric enrichment, comparison of congeners ([1]; incubations with rat liver microsomes): more pronounced enantiomeric enrichment compared to OH-PCB 102; extent of enantiomeric enrichment (EF) [6]: near racemic; rank order of EF values across species ([2]; EF = area E1/(area E1 + area E2), Chirasil-Dex column): monkey > rabbit ∼ guinea pig > hamster > rat > dog
